A melting point compilation (Tetko et al.)

Work on `CC(O)CO` (stereo not drawn) yielded a melting point of -60 °C. For `Cc1cc(C)ncn1`, the melting point was 25 °C. In the case of `O=C(Cl)c1ccc(-c2ccccn2)s1`, the melting point is reported as 140 to 141 °C. Molecule `O=C(Cl)c1cc2cc(Br)ccc2o1` has a melting point of 106 to 107 °C. With `CCC(O)(CC)C(=O)O` the melting point was 78 to 82 °C. Molecule `CN(CCO)CCO` has a melting point of -21 °C. In the case of `ClC(C(Cl)(Cl)Cl)C(Cl)(Cl)Cl`, the melting point is reported as 11 °C. In the case of `OCC#CCO`, the melting point is reported as 56 °C. Work on `O=Cc1cnc(N2CCCCC2)s1` yielded a melting point of 49 °C. For `Oc1ccccc1C=NC1CCCCC1N=Cc1ccccc1O` (stereo not drawn), the melting point was 118 °C. With `O=c1cc(-c2ccc(O)cc2)oc2cc(O)cc(O)c12` the melting point was 348 °C. Work on `Nc1c(C(=O)O)sc2nccnc12` yielded a melting point of 250 °C. Molecule `O=C(O)c1ccc[nH]c1=S` has a melting point of 270 °C. Work on `O=Cc1ccccc1Oc1ccccn1` yielded a melting point of 51 to 52 °C. For `CCC1CC2CC3c4[nH]c5cc(OC)ccc5c4CCN(C2)C13` (stereo not drawn), the melting point was 214 °C. For `CCOC(=O)c1c(-c2ccc(OC)cc2)csc1N`, the melting point was 75 °C. For `Cc1c(O)c(C)c(CCl)c(C)c1CCl`, the melting point was 135 to 140 °C. For `O=C(O)c1cccnc1Sc1ccc(Cl)cc1`, the melting point was 220 °C. With `Cc1nc(Cl)c(C(N)=O)c(C)c1Cl` the melting point was 172 °C. Molecule `Cc1cc(C)n2nc(N)c(/N=N/c3cc(Cl)ccc3Cl)c2n1` has a melting point of 279 °C. With `c1ccc(P(CCCCCCP(c2ccccc2)c2ccccc2)c2ccccc2)cc1` the melting point was 127 °C. `CC(=O)c1ccc2ccc3cccc4ccc1c2c34` showed a melting point of 88 °C. With `NC(CN(Cc1ccccc1)c1ccccc1)=NO` the melting point was 107 °C. Work on `O=C1OC(c2ccccc2)=NC1=Cc1cccs1` yielded a melting point of 167 °C. `CC1(C)C2CCC13CS(=O)(=O)N=C3C2` (stereo not drawn) gave a melting point of 227 °C. With `CC(C)(C)c1ccc(S(=O)(=O)Cl)cc1` the melting point was 82 °C. In the case of `Cc1cc2ccccc2cc1CBr`, the melting point is reported as 88 to 102 °C. Molecule `O=[N+]([O-])c1c(Cl)c(Cl)c(Cl)c(Cl)c1NCc1ccccc1` has a melting point of 96 to 97 °C. For `CCOC(=O)C(=NOC(C)(C)C(=O)OC(C)(C)C)c1csc(N)n1`, the melting point was 168 to 174 °C. In the case of `Cc1ccc(NC(=O)C(C(F)(F)F)C(F)(F)F)cc1`, the melting point is reported as 196 °C. Molecule `O=C(O)C=Cc1cccc(Cl)c1` has a melting point of 163 to 166 °C. In the case of `c1cncc(-c2cccnc2)c1`, the melting point is reported as 68 °C. `CN1CCC(=C2c3ccccc3CC(=O)c3sccc32)CC1` gave a melting point of 152 °C. In the case of `O=C1CSc2cc(Cl)ccc2N1`, the melting point is reported as 214 °C. `CC(C)C1=C(O)C(=O)C2=C(C1=O)[C@@H]1O[C@@H]1[C@H]1C(C)(C)CCC[C@]21C` showed a melting point of 202 °C. In the case of `NC(=S)CNC(=O)OCc1ccccc1`, the melting point is reported as 144 to 146 °C. Work on `CC(C)(C)OC(=O)N1CCC(C(N)=S)CC1` yielded a melting point of 130 to 131 °C. Molecule `O=C(CNc1cccc(NCC(=O)c2ccccc2)c1)c1ccccc1` has a melting point of 164 °C. In the case of `COc1ccccc1NC(=O)c1cncc(Cl)n1`, the melting point is reported as 72 °C. `CCCCCCCCCCCCCCCC(=O)CC` gave a melting point of 51 °C. Molecule `COc1ccc([N+](=O)[O-])cc1Cl` has a melting point of 94 to 96 °C. Molecule `CCCCC(CC)COP(=O)(O)OCC(CC)CCCC` (stereo not drawn) has a melting point of -50 °C. `COC(=O)c1c2c(c(C)c3c1C(C)C3=O)C(=O)C2` (stereo not drawn) showed a melting point of 150 °C. `CCOC(=O)c1cc(-c2ccco2)n(C)n1` gave a melting point of 63 to 64 °C. `CC(=O)c1c(C)cn(C)c1C` showed a melting point of 81 to 82 °C. `Cc1c(F)ccc(C(=O)Cl)c1F` showed a melting point of 37 °C. Work on `Cc1ccc(/N=N/c2c(N)nn3c(C(F)(F)F)cc(C)nc23)c(C)c1` yielded a melting point of 220 °C. In the case of `CCOC(=O)c1ccccc1N=C=O`, the melting point is reported as 29 °C. `CN(C)c1ccc(CCC2CCc3ccccc3N2)cc1` (stereo not drawn) gave a melting point of 68 to 68.5 °C. Work on `c1ccc2cc3c(ccc4cc5ccccc5cc43)cc2c1` yielded a melting point of 257 °C. With `COc1ncccc1C(=O)O` the melting point was 149 °C. Work on `C=CC(C)O` (stereo not drawn) yielded a melting point of -100 °C. Work on `CC(=O)Nc1cccc(-n2nnnc2S)c1` yielded a melting point of 185 to 187 °C. In the case of `O=c1[nH]c2ccccc2n1C1CCN(CCCC(c2ccc(F)cc2)c2ccc(F)cc2)CC1`, the melting point is reported as 216 °C. `Nc1cccnc1[N+](=O)[O-]` showed a melting point of 194 to 196 °C. For `Cc1nn(C)c(C)c1N`, the melting point was 102 °C. `CCOC(=O)c1ccc(F)cc1F` showed a melting point of 65 to 67 °C. `COc1ccc(O)c([N+](=O)[O-])c1` showed a melting point of 79 °C. With `O=C1c2cccc(O)c2C(=O)c2cccc(O)c21` the melting point was 280 °C. Work on `FC(F)(F)C(F)(F)C(F)(F)c1cc(-c2ccccc2)[nH]n1` yielded a melting point of 85 °C. With `COc1ccc(C=CNNc2nc(C)cc(C)n2)cc1` the melting point was 179 to 182 °C. For `COc1cc(Br)c(CC#N)cc1OC`, the melting point was 87 to 89 °C. With `Cc1oc(-c2ccccc2)nc1CCl` the melting point was 83 to 84 °C. `C/C(=N\NC(N)=O)C1CC2(C)CCC1C2(C)C` (stereo not drawn) gave a melting point of 236 °C. `C#CC(C1COC(C)(C)O1)N(O)Cc1ccccc1` (stereo not drawn) gave a melting point of 115 °C. `NC(=O)C12CC3CC(CC(C3)C1)C2` gave a melting point of 189 °C. `NS(=O)(=O)c1ccc(Cl)s1` showed a melting point of 117 °C. `FC(F)(F)c1nn(CN2CCN(Cn3nc(C(F)(F)F)n(N=Cc4ccccc4)c3=S)CC2)c(=S)n1N=Cc1ccccc1` showed a melting point of 333 °C.
